According to patent US6365634B1, “Naturally occurring compounds and their derivatives as cyclooxygenase 2 and/or 5-lipoxygenase inhibitors” (C-P Technology Limited Partnership, priority 1997, dated 2002):

Legend:
[1] = biological target: T1, rabbit reticulocyte 15-LO (Oryctolagus cuniculus, UniProt P12530); test: 15-LO biochemical assay (15-HETE formation, TLC quantitation); details: for Percent Inhibition of 15-LO: negative = increased activity
T1 construct: 24.5 units of a rabbit reticulocyte 15-LO preparation; tissue Oxford Biochemicals; host or cells: rabbit reticulocytes
T1 sequence (P12530 1-663): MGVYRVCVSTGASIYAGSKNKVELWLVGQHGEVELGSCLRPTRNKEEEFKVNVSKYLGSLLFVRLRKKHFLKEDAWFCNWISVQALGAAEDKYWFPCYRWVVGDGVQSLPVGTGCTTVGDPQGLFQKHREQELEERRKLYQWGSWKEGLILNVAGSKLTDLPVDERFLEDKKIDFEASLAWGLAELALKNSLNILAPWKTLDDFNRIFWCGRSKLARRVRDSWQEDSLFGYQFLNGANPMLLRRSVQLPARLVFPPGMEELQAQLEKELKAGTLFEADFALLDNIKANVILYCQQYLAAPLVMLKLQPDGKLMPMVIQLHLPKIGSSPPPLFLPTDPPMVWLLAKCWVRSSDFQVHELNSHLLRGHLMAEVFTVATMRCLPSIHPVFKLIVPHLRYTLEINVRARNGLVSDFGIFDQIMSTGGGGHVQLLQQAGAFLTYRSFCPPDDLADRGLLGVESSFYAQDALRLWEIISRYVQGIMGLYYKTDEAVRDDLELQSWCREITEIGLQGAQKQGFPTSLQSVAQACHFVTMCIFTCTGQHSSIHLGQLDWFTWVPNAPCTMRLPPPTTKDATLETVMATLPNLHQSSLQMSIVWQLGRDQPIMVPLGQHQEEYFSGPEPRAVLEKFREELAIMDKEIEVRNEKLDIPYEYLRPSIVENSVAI
Protocol: The inhibitory activity of dehydroabietic acid methyl ester was assessed by performing biochemical assays that utilized 1) human recombinant COX II, 2) ovine COX I, and 3) rabbit reticulocyte 15-LO. In all biochemical assays dehydroabietic acid methyl ester and inhibitory control compounds were used at a final concentration of […]. The COX I and II biochemical assays have been previously described in this document (see COX I and II Assays Used to Test X-8 Fractions and Purified Compounds, Example 3). The 15-LO assay was done using a modified version of a previously reported method (Corey, E. J., Shih, C., and Cashman, J. R. (1983) Proc. Natl. Acad. Sci. v80, p3,581; Sigal, E., Grunberger, D., Cashman, J. R., Craik, C. S., Caughey, G. H., and Nadel, J. A. (1988) Biochem. Biophys. Res Comm. v150(1), p376). Briefly, 24.5 units of a rabbit reticulocyte 15-LO preparation (corresponding to 7 ug total protein)(Oxford Biochemicals) was placed in potassium phosphate buffer (10 mM, pH 6.0). Dehydroabietic acid methyl ester was added to give a final concentration of 250 uM. The reaction was initiated by the addition of ^3H-AA (50 uM final concentration) and maintained at 37° C., for 5 min. The reaction was stopped by the addition of ice-cold methanol containing NaCNBH3 (to reduce peroxides). A portion of each reaction solution was then separated via TLC (250 μm PK6F 60 Å silica gel preparative TLC plate, Whatman), co-spotted with AA and 15-HETE (a metabolic product of 15-LO) and developed in hexane/ether/acetic acid (50:50:1) to separate 15-HETE from AA (Rf=0.29 and 0.5, respectively). Bands on the TLC plates were then visualized by I2 and scraped for quantitation. As with the COX I and II assays, percent inhibition was calculated based on a comparison between incubations performed in the presence and absence of dehydroabietic acid methyl ester (see “Fractionation and Bioassay Analysis of Fractions Derived from Extract-8” above).

human keratinocytes = test: Lactate dehydrogenase (LDH) release toxicity assay; type: cell-based; details: highest value of any culture treated with 5, 1.0, 0.2 or 0.04 uM
Protocol: To address the possibility that the inhibition of both PGE2 and LTB4 production by human keratinocytes treated with dehydroabietic acid methyl ester was […], a cell lactate dehydrogenase toxicity assay (Fisher Scientific) was performed. Briefly, lactate dehydrogenase (LDH) is found intracellularly and is released only in response to toxic stimuli and/or cell death. The amount of LDH released into the media of cultured cells is indicative of the degree of toxicity occurring in that culture. To do the assay, 48-well plates of cultured human keratinocytes (as described above for the PGE2 assay) were prepared and treated with the same concentrations of dehydroabietic acid methyl ester as described above for the PGE2 and LTB4 assays. One hour prior to harvesting culture media samples from wells treated with dehydroabietic acid methyl ester, duplicate wells were treated with a cell lysis buffer (Fisher Scientific) that caused 100% cell death to occur in the treated wells. After culture media samples were collected from all wells, the amount of LDH present in each was determined using a colorometric assay (Fisher Scientific). […] The amount of LDH released into the media of cultures treated with dehydroabietic acid methyl ester as well as vehicle-control media was determined using the colorometric assay and expressed as a percentage of that released by the 100% cell death wells.
To address the possibility that the inhibition of PGE2 production by human keratinocytes treated with 4-cumylphenol was due to toxicity, a cell lactate dehydrogenase toxicity assay (Fisher Scientific) was performed. […] After culture media samples were collected from all wells, the amount of LDH present in each was determined using a colorometric assay (Fisher Scientific). […] The amount of LDH released into the media of cultures treated with dehydroabietic acid methyl ester as well as vehicle-control media was determined using the colorometric assay and expressed as a percentage of that released by the 100% cell death wells. […]

CC(C)(c1ccccc1)c1ccc(O)cc1 [4-Cumylphenol, 4-cumylphenol]
Percent Inhibition of 15-LO ([1]; pure 4-cumylphenol, concentration not given): −40.0% | percent toxicity (LDH released) versus the 100% cell death control (human keratinocytes): ≤ 12.7%

COC(=O)[C@]1(C)CCC[C@]2(C)c3ccc(C(C)C)cc3CC[C@@H]12 [Dehydroabietic acid methyl ester, dehydroabietic acid methyl ester]
increase of the enzymatic activity of 15-LO ([1]; 250 uM): over 93% | Percent Inhibition of 15-LO ([1]; final concentration of 250 uM): −93.6% | percent toxicity (LDH released) versus the 100% cell death control (human keratinocytes): ≤ 12%
